In US10227331B2 (priority 2015, dated 2019):
Converted amounts (≈) assume the structure as drawn.

How the values were obtained:
[1] = tested on: MB 9861 (MB 5919 Trans pFIp-Vim1 plasmid, efflux+); format: cell-based, Pseudomonas aeruginosa
[2] = tested on: MB 5890 (OprD+, efflux-); format: cell-based, Pseudomonas aeruginosa
[3] = tested on: MB 5919 (OprD+, efflux+); format: cell-based, Pseudomonas aeruginosa
[4] = tested on: MB 9862 (MB 5890 Trans pFIp-Vim1, efflux-); format: cell-based, Pseudomonas aeruginosa
[5] = tested on: MB 5919 Trans pFIp-Vim2 plasd (efflux+); format: cell-based, Pseudomonas aeruginosa
[6] = tested on: MB 9799 (MB 5890 Trans IMP1 plasmid, efflux-); format: cell-based, Pseudomonas aeruginosa; conditions: CL 5673 (IMP-1) plasmid
[7] = tested on: MB 5890 Trans pFIp-Vim2 plasd (efflux-); format: cell-based, Pseudomonas aeruginosa
[8] = tested on: Klebsiella pneumoniae expressing VIM-1 (IHMA599644); format: cell-based; conditions: with imipenem 1 μg/ml; 95% inhibition of bacterial growth
How it was run: (§1)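 Clinical strains grown overnight on blood agar, then diluted 1:100 in 1.1× CAMHB and exposed to test compound with imipenem at 1 μg/ml. Incubation was 22–24 h at 35° C; growth was read by absorbance to find the compound concentration restoring imipenem susceptibility.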

[9] = tested on: Serratia marcescens expressing IMP-1 (CL5741); format: cell-based; conditions: with imipenem 1 μg/ml; 95% inhibition of bacterial growth
How it was run: as §1

[10] = tested on: Escherichia coli expressing NDM-1 (CLB30005, CLB30016); format: cell-based; conditions: with imipenem 1 μg/ml; 95% inhibition of bacterial growth
How it was run: as §1

[11] = tested on: P. aeruginosa expressing IMP-1, efflux+ (MB9798); format: cell-based, Pseudomonas aeruginosa; conditions: for P. aeruginosa expressing IMP-1, efflux+ (MB9798) MITC95: imipenem at 2 μg/mL, in the presence of a class A, C, D serine β-lactamase inhibitor closely related to relebactam; for Efflux ratio: ratio MITC95 PA_9798/MITC95 PA_9799
Excerpt: (§2) The strain background is Pseudomonas aeruginosa PAO1.

[12] = tested on: P. aeruginosa expressing IMP-1, efflux− (MB9799); test: Efflux: concentration of MBL inhibitor which restores susceptibility to imipenem; format: cell-based, Pseudomonas aeruginosa; conditions: imipenem at 2 μg/mL, in the presence of a class A, C, D serine β-lactamase inhibitor closely related to relebactam
Excerpt: as §2

[13] = target: IMP-1 (Serratia marcescens, UniProt P52699); test: biochemical; format: biochemical; conditions: CCF2-FA substrate, 2 hours at 25° C; read-out: IMP-1 IC50
Sequence of IMP-1 (P52699 whole entry, looked up, species assumed): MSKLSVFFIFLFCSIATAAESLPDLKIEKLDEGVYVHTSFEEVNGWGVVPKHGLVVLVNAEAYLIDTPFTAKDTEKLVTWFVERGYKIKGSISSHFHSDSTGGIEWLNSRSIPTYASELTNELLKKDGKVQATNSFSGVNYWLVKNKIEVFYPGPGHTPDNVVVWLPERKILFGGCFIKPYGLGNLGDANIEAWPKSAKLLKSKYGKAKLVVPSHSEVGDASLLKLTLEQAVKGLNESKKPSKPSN
How it was run: (§3)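 Class B activity is measured in the presence of compound by fluorescence with CCF2-FA after a 2-hour incubation at 25° C. IC50 is taken from a 4-parameter fit of semi-logarithmic dose-response data.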

[14] = target: NDM-1 (Klebsiella pneumoniae, UniProt C7C422); test: biochemical; format: biochemical; conditions: CCF2-FA substrate, 2 hours at 25° C; read-out: NDM-1 IC50
Sequence of NDM-1 (C7C422 whole entry, looked up, species assumed): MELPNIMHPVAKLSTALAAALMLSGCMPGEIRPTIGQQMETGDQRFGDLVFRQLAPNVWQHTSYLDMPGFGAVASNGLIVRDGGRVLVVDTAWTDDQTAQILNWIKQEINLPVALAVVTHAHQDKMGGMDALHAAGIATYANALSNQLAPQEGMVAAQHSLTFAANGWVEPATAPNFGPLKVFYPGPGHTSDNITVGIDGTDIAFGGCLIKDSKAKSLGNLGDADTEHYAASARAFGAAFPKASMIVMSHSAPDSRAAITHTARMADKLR
How it was run: as §3

[15] = target: VIM-1 (Pseudomonas aeruginosa (strain ATCC 15692 / DSM 22644 / CIP 104116 / JCM 14847 / LMG 12228 / 1C / PRS 101 / PAO1), UniProt A0A0F7KYQ8); test: biochemical; conditions: CCF2-FA substrate, 2 hours at 25° C
How it was run: as §3

Row | Structure (SMILES) | MIC [1] [µg/mL] | MIC [2] [µg/mL] | MIC [3] [µg/mL] | MIC [4] [µg/mL] | MIC [5] [µg/mL] | MIC [6] [µg/mL] | MIC [7] [µg/mL] | Klebsiella pneumoniae expressing VIM-1 (IHMA599644) MITC95 [8] [µM] | Serratia marcescens expressing IMP-1 (CL5741) MITC95 [9] [µM] | Escherichia coli expressing NDM-1 (CLB30016) MITC95 [10] [µM] | P. aeruginosa expressing IMP-1, efflux+ (MB9798) MITC95 [11] [µM] | Efflux ratio [11] | P. aeruginosa expressing IMP-1, efflux− (MB9799) MITC95 [12] [µM] | IC50 [13] [nM] | IC50 [14] [nM] | IC50 [15] [nM]
1 | CCN1CCN(C(=O)N[C@@H](C(=O)N[C@@H]2C(=O)N3[C@@H]2SC(C)(C)[C@@H]3C(=O)O)c2ccccc2)C(=O)C1=O [Pipercillin, piperacillin] | >256 | 1 (≈ 1.93 µM) | 2 (≈ 3.86 µM) | 128 (≈ 247 µM) | >256 | 4 (≈ 7.73 µM) | 128 (≈ 247 µM) | – | – | – | – | – | – | – | – | –
2 | CC(C)(O/N=C(\C(=O)N[C@@H]1C(=O)N2C(C(=O)[O-])=C(C[n+]3ccccc3)CS[C@H]12)c1csc(N)n1)C(=O)O [CAZ, ceftazidime] | >256 | 0.5 (≈ 0.915 µM) | 1 (≈ 1.83 µM) | >256 | 128 (≈ 234 µM) | 256 (≈ 468 µM) | 64 (≈ 117 µM) | – | – | – | – | – | – | – | – | –
3 | C[C@@H](O)[C@H]1C(=O)N2C(C(=O)O)=C(SCCN=CN)C[C@H]12 [Imipenem, imipenem] | >64 | 2 (≈ 6.68 µM) | 4 (≈ 13.4 µM) | 64 (≈ 214 µM) | >64 | 32 (≈ 107 µM) | 32 (≈ 107 µM) | – | – | – | – | – | – | – | – | –
4 | C[C@@H](O)[C@H]1C(=O)N2C(C(=O)O)=C(S[C@@H]3CN[C@H](C(=O)N(C)C)C3)[C@H](C)[C@H]12 [Meropenem, meropenem] | >64 | 0.5 (≈ 1.3 µM) | 2 (≈ 5.22 µM) | 64 (≈ 167 µM) | >64 | 64 (≈ 167 µM) | 32 (≈ 83.4 µM) | – | – | – | – | – | – | – | – | –
5 | NCCS(=O)(=O)c1ccc(-c2ccc3c(=O)nc[nH]c3c2)c(-c2nnn[nH]2)c1S(N)(=O)=O.O=C(O)C(F)(F)F [Example 165, 2-((4-(4-oxo-1,4-dihydroquinazolin-7-yl)-2-sulfamoyl-3-(1H-tetrazol-5-yl)phenyl)sulfonyl)ethanaminium 2,2,2-trifluoroacetate] | – | – | – | – | – | – | – | 6.25 | 3.125 | 3.125 | 12.5 | 4.00 | 3.125 | 1.6 | 2.48 | 0.571
6 | CCOC(=O)N1CCC(S(=O)(=O)c2ccc(-c3cccc4nc(N)[nH]c34)c(-c3nn[nH]n3)c2S(N)(=O)=O)CC1 [Example 46, ethyl 4-(4-(2-amino-3H-benzo[d]imidazol-4-yl)-2-sulfamoyl-3-(2H-tetrazol-5-yl)phenylsulfonyl)piperidine-1-carboxylate] | – | – | – | – | – | – | – | 25 | 25 | 6.25 | 200 | 64.00 | 3.125 | 2.15 | 0.445 | 0.378
7 | Nc1nc2cc(-c3ccc(S(=O)(=O)C4CNC4)c(S(N)(=O)=O)c3-c3nn[nH]n3)ccc2[nH]1 [Example 40, 3-(2-amino-1H-benzo[d]imidazol-5-yl)-6-(azetidin-3-ylsulfonyl)-2-(2H-tetrazol-5-yl)benzenesulfonamide] | – | – | – | – | – | – | – | 1.375 | 0.5573 | 0.4453 | 3.125 | 5.61 | 0.5573 | 1.99 | 0.409 | 0.348
8 | NCCS(=O)(=O)c1ccc(-c2cccc(N3CCS(=O)(=O)CC3)c2)c(-c2nnn[nH]2)c1S(N)(=O)=O.O=C(O)C(F)(F)F [Example 158, 2-((3′-(1,1-dioxidothiomorpholino)-3-sulfamoyl-2-(1H-tetrazol-5-yl)-[1,1′-biphenyl]-4-yl)sulfonyl)ethanaminium 2,2,2-trifluoroacetate] | – | – | – | – | – | – | – | 25 | 12.5 | 12.5 | 200 | 64.00 | 3.125 | 6.27 | 16.6 | 7.08
